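Following 48 hours of exposure in 96-well plates, responses at five concentrations were used to interpolate endpoints linearly. Here, GI50 denotes the concentration required for 50% inhibition of growth. TGI is the concentration that stops growth completely.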
Legend:
Experiment in all cases: NCI anticancer screen, dose series, 48 h
SK-MEL-2 melanoma = test system: SK-MEL-2 melanoma
MDA-N = test system: MDA-N
SK-MEL-28 melanoma = test system: SK-MEL-28 melanoma
T-47D breast = test system: T-47D breast
SR leukemia = test system: SR leukemia
HCT-116 colon = test system: HCT-116 colon
U251 CNS = test system: U251 CNS
NCI/ADR-RES ovarian = test system: NCI/ADR-RES ovarian
NCI-H460 lung = test system: NCI-H460 lung
OVCAR-8 ovarian = test system: OVCAR-8 ovarian
HOP-62 NSCLC = test system: HOP-62 NSCLC
HL-60(TB) leukemia = test system: HL-60(TB) leukemia
SF-295 CNS = test system: SF-295 CNS
SF-539 CNS = test system: SF-539 CNS
HT29 colon = test system: HT29 colon
SK-OV-3 ovarian = test system: SK-OV-3 ovarian
MDA-MB-435 = test system: MDA-MB-435

Structure (SMILES) | TGI (SK-MEL-2 melanoma) | TGI (MDA-N) | TGI (SK-MEL-28 melanoma) | TGI (T-47D breast) | TGI (SR leukemia) | TGI (HCT-116 colon) | TGI (U251 CNS) | TGI (NCI/ADR-RES ovarian) | TGI (NCI-H460 lung) | TGI (OVCAR-8 ovarian) | TGI (HOP-62 NSCLC) | TGI (HL-60(TB) leukemia) | TGI (SF-295 CNS) | TGI (SF-539 CNS) | TGI (HT29 colon) | TGI (SK-OV-3 ovarian) | GI50 (SK-MEL-2 melanoma) | GI50 (U251 CNS) | TGI (MDA-MB-435)
O=P(O)(Cc1ccccc1)c1ccccc1-c1ccccc1 | > 100 µM | > 100 µM | > 100 µM | > 100 µM | > 100 µM | > 100 µM | > 100 µM | > 100 µM | > 100 µM | > 100 µM | > 100 µM | > 100 µM | > 100 µM | > 100 µM | > 100 µM | > 100 µM |  |  | 
Cc1c(CNc2ccc(C(=O)NC(CC(=O)O)C(=O)O)cc2)ccc2nc(N)nc(N)c12 (configuration not stated) | > 1000 µM | > 1000 µM |  |  | > 1000 µM | > 1000 µM | > 1000 µM | > 1000 µM | > 1000 µM | > 1000 µM | > 1000 µM | > 1000 µM | > 1000 µM | > 1000 µM | > 1000 µM |  | > 1000 µM | 0.226 µM | > 1000 µM
Nc1nc2c(ncn2Cc2ccc(CO)cc2)c(=O)[nH]1 | > 100 µM |  | > 100 µM | > 100 µM | > 100 µM | > 100 µM | > 100 µM | > 100 µM | > 100 µM | > 100 µM | > 100 µM | > 100 µM | > 100 µM | > 100 µM | > 100 µM | > 100 µM |  |  | > 100 µM
Cc1ccc(C(=O)N/N=C(\N=Nc2ccccc2[N+](=O)[O-])c2ccc(N(C)C)cc2)cc1 | > 100 µM | > 100 µM | > 100 µM |  | > 100 µM | > 100 µM | > 100 µM | > 100 µM | > 100 µM | > 100 µM |  | > 100 µM | > 100 µM | > 100 µM | > 100 µM | > 100 µM |  |  | > 100 µM
COc1ccc(/C=N/n2c(-c3ccccc3)n[nH]c2=O)cc1 | > 100 µM | > 100 µM | > 100 µM | > 100 µM |  | > 100 µM | > 100 µM | > 100 µM | > 100 µM | > 100 µM | > 100 µM |  | > 100 µM | > 100 µM | > 100 µM | > 100 µM |  |  | > 100 µM
COc1ccc(-c2c(C#N)c(O)n(NS(=O)(=O)c3ccc(C)cc3)c(=O)c2C#N)cc1 | > 100 µM | > 100 µM | > 100 µM |  |  | > 100 µM | > 100 µM | > 100 µM | > 100 µM | > 100 µM | > 100 µM | > 100 µM | > 100 µM | > 100 µM | > 100 µM | > 100 µM |  |  | > 100 µM
CC(C)C[C@H]1[C@@H](OCc2ccccc2)COS(=O)N1[C@H](C)c1ccccc1 (some centres not stated) | 36.1 µM | > 100 µM | > 100 µM | > 100 µM |  | 19 µM | 36.5 µM | > 100 µM | 47.8 µM | > 100 µM | 67.4 µM | 51.7 µM | 34.3 µM |  | 49.3 µM | 78 µM |  |  | > 100 µM
CCCC(O)C(NC(=O)CCl)C(=O)O (configuration not stated) | > 100 µM |  | > 100 µM |  |  | > 100 µM | > 100 µM | > 100 µM | > 100 µM | > 100 µM | > 100 µM | > 100 µM | > 100 µM | > 100 µM | > 100 µM | > 100 µM |  |  | 
CC(C)(C)c1cc(C(CO)OCCOCCO)cc(C(C)(C)C)c1O (configuration not stated) | > 100 µM | > 100 µM | > 100 µM | > 100 µM |  | > 100 µM | > 100 µM | > 100 µM |  | > 100 µM | > 100 µM |  | > 100 µM | > 100 µM | > 100 µM | > 100 µM |  |  | > 100 µM
COc1cc2c(cc1O)C1C(O)C(O)C=C3CCN(C2)C31 (configuration not stated) | 5.74 µM |  | 13.9 µM |  | 5.67 µM | 2.25 µM | 24.2 µM |  | 10.1 µM | 9.14 µM | 10.9 µM | 7.53 µM | 17.6 µM | 4.68 µM | 18.9 µM | 22.9 µM |  |  | 
CC(C)C1=C(Cc2ccccc2)C(=O)O/C1=C\c1cc(Cl)c(O)c(Cl)c1 |  | 37.4 µM | 35.9 µM |  | 66.8 µM | 34.8 µM | 31.8 µM | 52.3 µM | 41.2 µM | 42.4 µM | 42.4 µM | 41.7 µM | 30.8 µM | 44.4 µM | 32.2 µM | 39.7 µM |  |  | 35.4 µM
Cc1ccsc1/C=N/Nc1ccc2ccccc2n1 | > 100 µM | > 100 µM | > 100 µM | > 100 µM |  | > 100 µM | > 100 µM | > 100 µM |  | > 100 µM | 68.8 µM | 40.1 µM | 31 µM |  | > 100 µM | 48 µM |  |  | > 100 µM
N#CC1(C#N)C2CCCCC23OC(=N)C1(C#N)C(c1ccccc1)O3 (configuration not stated) | 43 µM | 27.9 µM |  | 57.9 µM |  | 41.4 µM | 69.6 µM | > 100 µM | 49.7 µM | 48.9 µM |  |  | > 100 µM | 42.1 µM | 60.2 µM | > 100 µM |  |  | 83.6 µM
O=C(NS(=O)(=O)OCC(Cl)(Cl)Cl)SCCC(F)(F)C(F)(F)C(F)(F)C(F)(F)C(F)(F)C(F)(F)F | 66.8 µM |  | 55.7 µM | 98.4 µM | > 100 µM | 40.8 µM | 51.8 µM | 48.1 µM | 41.5 µM | > 100 µM | 72.4 µM | 51.2 µM | 38.9 µM | 34.5 µM | 35.6 µM | 32.1 µM |  |  | 55 µM
COc1ccc(N2C(=O)CS(=O)(=O)C2c2cccc(Oc3ccccc3)c2)cc1 (configuration not stated) | 15.9 µM |  | > 100 µM | > 100 µM | 8.48 µM | 5.88 µM | 22.1 µM | 15.4 µM | 8.03 µM | 95.7 µM | > 100 µM | > 100 µM | > 100 µM | 15.1 µM | 50.9 µM | > 100 µM |  |  | 7.08 µM
